In ChEMBL document CHEMBL4265983, “Discovery and biological evaluation of thiobarbituric derivatives as potent p300/CBP inhibitors” (Bioorg Med Chem, 2018):
Calls of active or inactive are those of the source. No cut-off for these calls is given here.

Legend:
[1] = biological target: Histone acetyltransferase KAT5 (Homo sapiens, UniProt Q92993); experiment: Inhibition of Tip60 (unknown origin)
[2] = biological target: Histone acetyltransferase p300 (Homo sapiens, UniProt Q09472); experiment: Inhibition of p300 (unknown origin) using human histone as substrate measured after 60 mins in presence of [3H]-acetyl-CoA by microbeta counting method
[3] = biological target: T1, CREB-binding protein/Histone acetyltransferase p300 (Homo sapiens) (UniProt Q09472+Q92793); experiment: Inhibition of P300/CBP acetyl transferase activity in human MV4-11 cells assessed as reduction in acetylated H3K18 levels at 2.2 to 60 uM after 24 hrs in presence of SAHA by Western blot analysis; assay type: cell-based
MV4-11 [4] = experiment: Antiproliferative activity against human MV4-11 cells after 72 hrs by CellTiter-Glo assay; conditions: MV4-11, 72 h
[5] = biological target: T1, CREB-binding protein/Histone acetyltransferase p300 (Homo sapiens); experiment: Inhibition of P300/CBP acetyl transferase activity in human Kasumi-1 cells assessed as reduction in acetylated H3K18 levels at 2.2 to 60 uM after 24 hrs in presence of SAHA by Western blot analysis; assay type: cell-based
[6] = biological target: T1, CREB-binding protein/Histone acetyltransferase p300 (Homo sapiens); experiment: Inhibition of P300/CBP in human MV4-11 cells assessed as downregulation of CCNA2 RNA expression at 20 uM after 12 hrs by RT-PCR analysis; assay type: cell-based
Kasumi 1 = experiment: Antiproliferative activity against human Kasumi-1 cells after 72 hrs by CellTiter-Glo assay; conditions: Kasumi 1, 72 h
MV4-11 [7] = experiment: Induction of apoptosis in human MV4-11 cells assessed as increase in cleaved caspase9 levels after 24 hrs by Western blot analysis; assay type: functional, cell-based
[8] = biological target: T1, CREB-binding protein/Histone acetyltransferase p300 (Homo sapiens); experiment: Inhibition of P300/CBP acetyl transferase activity in human Kasumi-1 cells assessed as reduction in acetylated H3K18 levels after 24 hrs in presence of SAHA by Western blot analysis; assay type: cell-based
[9] = biological target: T1, CREB-binding protein/Histone acetyltransferase p300 (Homo sapiens); experiment: Inhibition of P300/CBP in human MV4-11 cells assessed as downregulation of MYC RNA expression at 20 uM after 12 hrs by RT-PCR analysis; assay type: cell-based
CCRF-CEM = experiment: Antiproliferative activity against human CEM cells after 72 hrs by CellTiter-Glo assay
MV4-11 [10] = experiment: Induction of apoptosis in human MV4-11 cells assessed as increase in cleaved caspase3 levels after 24 hrs by Western blot analysis; assay type: functional, cell-based
[11] = biological target: T1, CREB-binding protein/Histone acetyltransferase p300 (Homo sapiens); experiment: Inhibition of P300/CBP acetyl transferase activity in human MV4-11 cells assessed as reduction in acetylated H3K18 levels after 24 hrs in presence of SAHA by Western blot analysis; assay type: cell-based
MV4-11 [12] = experiment: Antitumor activity against human MV4-11 cells xenografted in nude mouse assessed as reduction in tumor cell proliferation at 25 to 50 mg/kg, ip administered every 2 days for 20 days by KI-67-staining based microscopic analysis; assay type: functional, organism-based
KOPN-8 = experiment: Antiproliferative activity against human KOPN8 cells after 72 hrs by CellTiter-Glo assay; conditions: KOPN-8, 72 h
[13] = biological target: T1, CREB-binding protein/Histone acetyltransferase p300 (Homo sapiens); experiment: Inhibition of P300/CBP in human MV4-11 cells assessed as upregulation of GADD45B RNA expression at 20 uM after 12 hrs by RT-PCR analysis; assay type: cell-based
MV4-11 [14] = experiment: Induction of apoptosis in human MV4-11 cells up to 20 uM after 48 hrs by Annexin V-FITC/propidium iodide staining-based flow cytometric analysis; assay type: functional, cell-based
MV4-11 [15] = experiment: Cell cycle arrest in human MV4-11 cells assessed as accumulation at G1 phase up to 20 uM after 24 hrs by propidium iodide/RNase staining-based flow cytometric analysis; assay type: functional
Jurkat = experiment: Antiproliferative activity against human Jurkat cells after 72 hrs by CellTiter-Glo assay
MV4-11 [16] = experiment: Induction of apoptosis in human MV4-11 cells assessed as increase in cleaved PARP levels after 24 hrs by Western blot analysis; assay type: functional, cell-based
[17] = biological target: T1, CREB-binding protein/Histone acetyltransferase p300 (Homo sapiens); experiment: Inhibition of P300/CBP in human MV4-11 cells assessed as upregulation of SESN2 RNA expression at 20 uM after 12 hrs by RNA-seq analysis; assay type: cell-based
[18] = biological target: T1, CREB-binding protein/Histone acetyltransferase p300 (Homo sapiens); experiment: Inhibition of P300/CBP in human MV4-11 cells assessed as downregulation of HIF1A RNA expression at 20 uM after 12 hrs by RT-PCR analysis; assay type: cell-based
[19] = biological target: T1, CREB-binding protein/Histone acetyltransferase p300 (Homo sapiens); experiment: Inhibition of P300/CBP in human MV4-11 cells assessed as downregulation of HIF1A RNA expression at 20 uM after 12 hrs by RNA-seq analysis; assay type: cell-based
[20] = biological target: T1, CREB-binding protein/Histone acetyltransferase p300 (Homo sapiens); experiment: Inhibition of P300/CBP in human MV4-11 cells assessed as downregulation of MYC RNA expression at 20 uM after 12 hrs by RNA-seq analysis; assay type: cell-based
[21] = biological target: T1, CREB-binding protein/Histone acetyltransferase p300 (Homo sapiens); experiment: Inhibition of P300/CBP in human MV4-11 cells assessed as downregulation of CCNA2 RNA expression at 20 uM after 12 hrs by RNA-seq analysis; assay type: cell-based
MOLT-4 = experiment: Antiproliferative activity against human MOLT4 cells after 72 hrs by CellTiter-Glo assay; conditions: MOLT-4, 72 h
[22] = biological target: T1, CREB-binding protein/Histone acetyltransferase p300 (Homo sapiens); experiment: Inhibition of P300/CBP in human MV4-11 cells assessed as downregulation of RRM2B RNA expression at 20 uM after 12 hrs by RNA-seq analysis; assay type: cell-based
MV4-11 [23] = experiment: Antitumor activity against human MV4-11 cells xenografted in ip dosed nude mouse assessed as reduction in tumor growth rate administered every 2 days for 20 days; assay type: functional, organism-based
[24] = biological target: T1, CREB-binding protein/Histone acetyltransferase p300 (Homo sapiens); experiment: Inhibition of P300/CBP in human MV4-11 cells assessed as downregulation of RRM2B RNA expression at 20 uM after 12 hrs by RT-PCR analysis; assay type: cell-based
[25] = biological target: T1, CREB-binding protein/Histone acetyltransferase p300 (Homo sapiens); experiment: Inhibition of P300/CBP in human MV4-11 cells assessed as change in DEPDC1 mRNA expression at 20 uM after 12 hrs by RNA-seq analysis; assay type: cell-based
CREB-binding protein = CREB-binding protein (Homo sapiens, UniProt Q92793); experiment: Inhibition of CBP (unknown origin) in presence of [3H]-acetyl-CoA
K562 = experiment: Antiproliferative activity against human K562 cells after 72 hrs by CellTiter-Glo assay; conditions: K562, 72 h
MV4-11 [26] = experiment: Induction of apoptosis in human MV4-11 cells assessed as apoptotic cells at 6.7 uM after 48 hrs by Annexin V-FITC/propidium iodide staining-based flow cytometric analysis; assay type: functional
MV4-11 [27] = experiment: Antitumor activity against human MV4-11 cells xenografted in ip dosed nude mouse assessed as increase in apoptotic cells administered every 2 days for 20 days by TUNEL assay; assay type: functional, organism-based
[28] = biological target: T1, CREB-binding protein/Histone acetyltransferase p300 (Homo sapiens); experiment: Inhibition of P300/CBP in human MV4-11 cells assessed as upregulation of GADD45B RNA expression at 20 uM after 12 hrs by RNA-seq analysis; assay type: cell-based
MOLT-3 = experiment: Antiproliferative activity against human MOLT3 cells after 72 hrs by CellTiter-Glo assay; conditions: MOLT-3, 72 h
[29] = biological target: T1, CREB-binding protein/Histone acetyltransferase p300 (Homo sapiens); experiment: Inhibition of P300/CBP in human MV4-11 cells assessed as upregulation of BAX RNA expression at 20 uM after 12 hrs by RNA-seq analysis; assay type: cell-based
[30] = biological target: T1, CREB-binding protein/Histone acetyltransferase p300 (Homo sapiens); experiment: Inhibition of P300/CBP in human MV4-11 cells assessed as upregulation of BAX RNA expression at 20 uM after 12 hrs by RT-PCR analysis; assay type: cell-based
RS4-11 = experiment: Antiproliferative activity against human RS4:11 cells after 72 hrs by CellTiter-Glo assay; conditions: RS4-11, 72 h
[31] = biological target: T1, CREB-binding protein/Histone acetyltransferase p300 (Homo sapiens); experiment: Inhibition of P300/CBP in human MV4-11 cells assessed as downregulation of CCNB1 RNA expression at 20 uM after 12 hrs by RNA-seq analysis; assay type: cell-based
[32] = biological target: T1, CREB-binding protein/Histone acetyltransferase p300 (Homo sapiens); experiment: Inhibition of P300/CBP in human MV4-11 cells assessed as upregulation of SESN2 RNA expression at 20 uM after 12 hrs by RT-PCR analysis; assay type: cell-based
THP-1 = experiment: Antiproliferative activity against human THP1 cells after 72 hrs by CellTiter-Glo assay; conditions: THP-1, 72 h
[33] = biological target: T1, CREB-binding protein/Histone acetyltransferase p300 (Homo sapiens); experiment: Inhibition of P300/CBP in human MV4-11 cells assessed as change in UHRF1 mRNA expression at 20 uM after 12 hrs by RNA-seq analysis; assay type: cell-based
[34] = biological target: T1, CREB-binding protein/Histone acetyltransferase p300 (Homo sapiens); experiment: Inhibition of P300/CBP in human MV4-11 cells assessed as downregulation of CCNB1 RNA expression at 20 uM after 12 hrs by RT-PCR analysis; assay type: cell-based

T1 sequence (Q09472 whole entry, looked up): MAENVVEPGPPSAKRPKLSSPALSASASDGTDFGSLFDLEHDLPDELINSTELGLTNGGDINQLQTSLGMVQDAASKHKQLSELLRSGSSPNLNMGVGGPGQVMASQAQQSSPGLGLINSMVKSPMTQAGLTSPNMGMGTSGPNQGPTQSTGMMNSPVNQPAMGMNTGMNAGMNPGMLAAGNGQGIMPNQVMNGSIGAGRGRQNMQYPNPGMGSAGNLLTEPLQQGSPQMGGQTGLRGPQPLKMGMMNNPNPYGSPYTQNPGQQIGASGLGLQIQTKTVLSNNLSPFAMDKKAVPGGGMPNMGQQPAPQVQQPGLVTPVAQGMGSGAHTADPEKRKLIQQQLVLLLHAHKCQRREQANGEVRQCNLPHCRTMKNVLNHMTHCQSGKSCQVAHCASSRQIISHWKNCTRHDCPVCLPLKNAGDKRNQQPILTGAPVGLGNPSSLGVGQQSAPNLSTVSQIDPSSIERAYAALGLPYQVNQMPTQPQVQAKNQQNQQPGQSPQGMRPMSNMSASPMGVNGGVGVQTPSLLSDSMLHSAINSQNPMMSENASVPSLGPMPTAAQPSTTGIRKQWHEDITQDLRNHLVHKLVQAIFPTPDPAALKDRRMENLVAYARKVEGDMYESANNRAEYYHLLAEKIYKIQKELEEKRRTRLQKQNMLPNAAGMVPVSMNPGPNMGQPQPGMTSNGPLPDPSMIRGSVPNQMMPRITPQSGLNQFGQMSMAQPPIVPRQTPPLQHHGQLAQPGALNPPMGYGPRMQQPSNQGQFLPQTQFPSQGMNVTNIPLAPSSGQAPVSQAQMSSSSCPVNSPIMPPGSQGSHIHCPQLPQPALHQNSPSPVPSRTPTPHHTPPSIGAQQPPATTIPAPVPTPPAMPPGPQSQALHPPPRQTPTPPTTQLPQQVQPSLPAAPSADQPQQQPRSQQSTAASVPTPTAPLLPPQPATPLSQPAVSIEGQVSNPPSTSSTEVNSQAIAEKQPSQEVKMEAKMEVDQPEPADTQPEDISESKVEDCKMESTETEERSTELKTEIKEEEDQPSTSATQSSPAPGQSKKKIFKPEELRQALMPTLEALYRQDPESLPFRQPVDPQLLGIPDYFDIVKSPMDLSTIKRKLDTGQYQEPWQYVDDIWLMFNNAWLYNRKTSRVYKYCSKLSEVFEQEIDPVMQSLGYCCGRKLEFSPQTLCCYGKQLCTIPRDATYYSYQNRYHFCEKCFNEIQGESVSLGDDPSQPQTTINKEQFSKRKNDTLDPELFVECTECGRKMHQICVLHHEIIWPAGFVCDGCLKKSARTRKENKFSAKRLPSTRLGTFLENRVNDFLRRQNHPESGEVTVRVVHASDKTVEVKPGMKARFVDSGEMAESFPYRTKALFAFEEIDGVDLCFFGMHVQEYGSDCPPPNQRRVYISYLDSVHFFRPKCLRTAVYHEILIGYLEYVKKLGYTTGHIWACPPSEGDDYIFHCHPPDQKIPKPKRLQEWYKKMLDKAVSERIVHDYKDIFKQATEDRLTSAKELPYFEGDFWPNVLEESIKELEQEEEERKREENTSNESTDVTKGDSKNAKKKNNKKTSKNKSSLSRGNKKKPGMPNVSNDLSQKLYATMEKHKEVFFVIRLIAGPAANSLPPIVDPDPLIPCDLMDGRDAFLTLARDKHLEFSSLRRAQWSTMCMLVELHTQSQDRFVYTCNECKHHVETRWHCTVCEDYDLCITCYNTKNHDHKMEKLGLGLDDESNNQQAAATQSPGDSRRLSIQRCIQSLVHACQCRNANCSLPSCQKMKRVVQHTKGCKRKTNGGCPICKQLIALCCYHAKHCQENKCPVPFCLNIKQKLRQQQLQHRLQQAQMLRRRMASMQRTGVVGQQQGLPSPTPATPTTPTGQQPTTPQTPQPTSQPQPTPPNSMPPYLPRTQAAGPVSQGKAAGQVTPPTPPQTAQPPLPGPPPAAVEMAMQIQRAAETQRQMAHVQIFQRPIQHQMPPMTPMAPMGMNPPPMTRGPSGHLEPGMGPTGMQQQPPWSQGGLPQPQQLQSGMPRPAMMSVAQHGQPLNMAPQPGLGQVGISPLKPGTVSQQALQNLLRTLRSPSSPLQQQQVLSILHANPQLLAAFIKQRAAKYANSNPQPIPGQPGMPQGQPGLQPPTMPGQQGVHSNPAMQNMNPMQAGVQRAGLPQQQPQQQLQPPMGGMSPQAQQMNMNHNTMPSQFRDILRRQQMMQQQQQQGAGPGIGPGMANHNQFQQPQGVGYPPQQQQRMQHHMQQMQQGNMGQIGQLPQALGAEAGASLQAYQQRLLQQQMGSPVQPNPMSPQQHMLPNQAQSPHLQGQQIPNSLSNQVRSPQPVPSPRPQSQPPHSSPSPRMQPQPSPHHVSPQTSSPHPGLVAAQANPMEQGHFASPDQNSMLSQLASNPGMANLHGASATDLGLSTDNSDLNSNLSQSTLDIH
T1 sequence (Q92793 whole entry, looked up): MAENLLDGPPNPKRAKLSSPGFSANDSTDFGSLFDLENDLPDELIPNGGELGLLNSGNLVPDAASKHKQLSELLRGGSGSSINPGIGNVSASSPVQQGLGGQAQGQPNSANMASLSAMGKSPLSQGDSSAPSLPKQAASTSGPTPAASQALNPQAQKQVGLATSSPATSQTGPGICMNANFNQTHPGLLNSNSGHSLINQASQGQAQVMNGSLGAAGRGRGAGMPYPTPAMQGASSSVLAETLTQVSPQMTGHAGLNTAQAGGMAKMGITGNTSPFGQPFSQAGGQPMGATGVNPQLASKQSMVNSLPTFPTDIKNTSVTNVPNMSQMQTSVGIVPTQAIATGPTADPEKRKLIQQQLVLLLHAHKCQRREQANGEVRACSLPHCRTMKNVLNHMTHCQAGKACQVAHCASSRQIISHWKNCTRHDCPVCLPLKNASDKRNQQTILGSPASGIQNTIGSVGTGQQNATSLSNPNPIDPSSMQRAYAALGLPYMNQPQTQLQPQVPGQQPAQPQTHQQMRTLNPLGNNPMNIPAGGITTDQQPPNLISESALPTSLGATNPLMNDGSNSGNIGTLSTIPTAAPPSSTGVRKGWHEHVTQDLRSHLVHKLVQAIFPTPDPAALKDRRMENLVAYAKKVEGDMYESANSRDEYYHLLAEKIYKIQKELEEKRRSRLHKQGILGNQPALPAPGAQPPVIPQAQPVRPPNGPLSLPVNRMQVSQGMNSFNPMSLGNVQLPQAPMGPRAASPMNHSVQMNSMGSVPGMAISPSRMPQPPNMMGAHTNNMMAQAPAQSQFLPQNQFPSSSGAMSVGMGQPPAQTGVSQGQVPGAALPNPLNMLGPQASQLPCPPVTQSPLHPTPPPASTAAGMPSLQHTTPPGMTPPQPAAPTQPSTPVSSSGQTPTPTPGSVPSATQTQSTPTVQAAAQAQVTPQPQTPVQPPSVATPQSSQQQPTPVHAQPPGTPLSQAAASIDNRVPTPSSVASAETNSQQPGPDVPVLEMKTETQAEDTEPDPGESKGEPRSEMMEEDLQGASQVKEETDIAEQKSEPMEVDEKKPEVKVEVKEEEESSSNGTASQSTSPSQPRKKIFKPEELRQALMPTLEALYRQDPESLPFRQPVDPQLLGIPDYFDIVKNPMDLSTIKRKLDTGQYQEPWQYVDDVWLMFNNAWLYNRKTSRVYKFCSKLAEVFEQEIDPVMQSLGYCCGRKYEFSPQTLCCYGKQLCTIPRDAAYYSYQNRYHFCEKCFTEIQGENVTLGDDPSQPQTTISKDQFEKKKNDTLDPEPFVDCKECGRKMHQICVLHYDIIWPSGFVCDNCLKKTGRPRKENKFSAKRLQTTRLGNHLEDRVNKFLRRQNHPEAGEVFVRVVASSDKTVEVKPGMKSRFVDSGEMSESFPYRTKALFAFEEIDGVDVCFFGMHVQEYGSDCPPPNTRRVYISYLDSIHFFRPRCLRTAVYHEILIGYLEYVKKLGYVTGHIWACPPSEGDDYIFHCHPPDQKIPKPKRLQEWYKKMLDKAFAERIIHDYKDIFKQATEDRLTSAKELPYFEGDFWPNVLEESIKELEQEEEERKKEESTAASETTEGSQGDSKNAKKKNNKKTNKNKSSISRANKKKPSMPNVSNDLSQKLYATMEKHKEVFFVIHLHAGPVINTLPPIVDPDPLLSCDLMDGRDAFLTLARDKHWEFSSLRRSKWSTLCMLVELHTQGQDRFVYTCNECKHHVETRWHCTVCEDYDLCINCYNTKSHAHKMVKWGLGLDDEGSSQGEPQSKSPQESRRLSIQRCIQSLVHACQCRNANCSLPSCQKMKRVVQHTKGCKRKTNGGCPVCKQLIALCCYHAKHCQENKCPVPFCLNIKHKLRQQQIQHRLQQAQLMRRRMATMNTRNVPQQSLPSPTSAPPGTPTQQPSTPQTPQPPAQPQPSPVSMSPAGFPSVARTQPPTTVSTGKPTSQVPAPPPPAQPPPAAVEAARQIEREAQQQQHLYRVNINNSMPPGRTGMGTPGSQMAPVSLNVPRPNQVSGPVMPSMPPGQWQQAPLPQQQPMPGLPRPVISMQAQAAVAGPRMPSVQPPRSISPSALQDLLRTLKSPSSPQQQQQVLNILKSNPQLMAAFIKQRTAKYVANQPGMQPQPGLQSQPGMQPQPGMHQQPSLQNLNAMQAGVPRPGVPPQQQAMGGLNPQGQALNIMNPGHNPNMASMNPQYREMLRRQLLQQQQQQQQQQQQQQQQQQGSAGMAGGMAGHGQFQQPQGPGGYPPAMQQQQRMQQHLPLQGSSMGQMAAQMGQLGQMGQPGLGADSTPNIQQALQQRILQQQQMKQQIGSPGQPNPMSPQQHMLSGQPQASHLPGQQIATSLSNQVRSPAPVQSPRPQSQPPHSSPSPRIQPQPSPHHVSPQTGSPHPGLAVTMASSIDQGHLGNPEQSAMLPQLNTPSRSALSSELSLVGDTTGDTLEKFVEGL
Chain of Histone acetyltransferase p300 (Q09472 whole entry): as the sequence (Q09472 whole entry, looked up) above
Chain of CREB-binding protein (Q92793 whole entry): as the sequence (Q92793 whole entry, looked up) above

Work on `CCCCCCCCCCCCCCCc1cccc(O)c1C(=O)O` [ANACARDIC ACID] yielded an IC50 [1] of 64 µM.
For `CN1C(=O)/C(=C/c2c[nH]c3ccccc23)C(=O)NC1=S`, the IC50 [2] was > 50 µM.
With `CN1C(=O)/C(=C/c2ccccc2)C(=O)NC1=S` the IC50 [2] was 45 µM, the inhibition [3] was “inactive” and the IC50 (MV4-11 [4]) was > 100 µM. For the same compound, the inhibition [5] was “inactive”.
`Cc1cc(/C=C2\C(=O)NC(=S)N(C)C2=O)c(C)n1C` was tested, and the IC50 [2] was 14 µM.
With `CN1C(=O)/C(=C/c2ccc(N3CCOCC3)o2)C(=O)NC1=S` the IC50 [2] was > 50 µM.
In the case of `Cc1ccc(N2C(=O)/C(=C\C=C\c3ccco3)C(=O)NC2=S)cc1Cl`, the inhibition [6] is reported as “Active”, the IC50 (Kasumi 1) is reported as 1.9 µM and the Activity (MV4-11 [7]) is reported as “Dose-dependent effect”. The inhibition [8] was “Dose-dependent effect”, the inhibition [9] was “Active” and the IC50 (CCRF-CEM) was 3.8 µM. The Activity (MV4-11 [10]) was “Dose-dependent effect”, the inhibition [11] was “Dose-dependent effect” and the Activity (MV4-11 [12]) was “Active”. The IC50 (KOPN-8) was 5.9 µM, the inhibition [13] was “Active” and the Activity (MV4-11 [14]) was “Dose-dependent effect”. For the same compound, the Activity (MV4-11 [15]) was “Dose-dependent effect”, the IC50 (Jurkat) was 2.2 µM and the Activity (MV4-11 [16]) was “Dose-dependent effect”. For the same compound, the inhibition [17] was “Active”, the inhibition [18] was “Active” and the inhibition [19] was “Active”. For the same compound, the inhibition [20] was “Active”, the inhibition [21] was “Active” and the IC50 (MOLT-4) was 3.5 µM. The IC50 [2] was 0.7 µM, the inhibition [22] was “Active” and the TGI (MV4-11 [23]) was “Dose-dependent effect”. The IC50 (MV4-11 [4]) was 1.1 µM, the inhibition [24] was “Active” and the inhibition [25] was “Active”. The IC50 (CREB-binding protein) was 3.2 µM, the IC50 (K562) was 3.1 µM and the Activity (MV4-11 [26]) was “>=60%”. The Activity (MV4-11 [27]) was “Dose-dependent effect”, the inhibition [28] was “Active” and the IC50 (MOLT-3) was 2.7 µM. For the same compound, the inhibition [29] was “Active”, the inhibition [30] was “Active” and the IC50 (RS4-11) was 4.7 µM. For the same compound, the inhibition [31] was “Active”, the inhibition [32] was “Active” and the IC50 (THP-1) was 3 µM. The inhibition [33] was “Active” and the inhibition [34] was “Active”.
For `CN1C(=O)/C(=C/c2ccncc2)C(=O)NC1=S`, the IC50 [2] was > 50 µM.
